According to publication PMC1350429 (Purinergic Signalling, 2005):
Like-named read-outs stand apart in the source and are kept apart here. Values belong to the molecule of their own block, whether it stands above or below them.

Experiments:
[1] = molecular target: T1, human P2Y1 receptor (Homo sapiens, UniProt P47900); format: cell-based; conditions: for Calcium response on addition of nucleotide: control experiments
[2] = molecular target: T1, human P2Y1 receptor; assay: Yeast liquid growth assay; format: cell-based
[3] = molecular target: T1, human P2Y1 receptor; assay: [3H]MRS2279 binding assay, membranes from astrocytoma cells
[4] = molecular target: P2Y1 receptor; conditions: read-out: KB previously reported; cited from earlier work
[5] = read-out: Functional potency (EC50), Calcium (astrocytoma), 1321N1 astrocytoma cells, FlexStation, n = 3
[6] = read-out: Binding (Ki), Astrocytoma, competition for [3H]MRS2279 (8 nM) binding, 30 min, 4°C

T1 sequence (P47900 whole entry): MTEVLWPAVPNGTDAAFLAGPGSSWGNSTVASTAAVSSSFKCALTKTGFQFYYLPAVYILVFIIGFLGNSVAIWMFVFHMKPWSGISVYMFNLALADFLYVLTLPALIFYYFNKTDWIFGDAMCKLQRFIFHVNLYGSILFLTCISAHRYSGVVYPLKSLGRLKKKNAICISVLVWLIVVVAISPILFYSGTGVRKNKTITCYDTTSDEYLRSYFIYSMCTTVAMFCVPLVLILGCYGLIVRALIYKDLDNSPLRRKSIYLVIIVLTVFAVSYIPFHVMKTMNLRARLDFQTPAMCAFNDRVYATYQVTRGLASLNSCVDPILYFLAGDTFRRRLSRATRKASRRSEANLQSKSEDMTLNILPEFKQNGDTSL

Molecule: Nc1ncnc2c1ncn2[C@@H]1O[C@H](COP(=O)(O)OP(=O)(O)S)[C@@H](O)[C@H]1O (stereo partly drawn) [ADP-β-S, adenosine 5′-O-(2-thio-diphosphate)]
EC50 [1]: 0.086 ± 0.042 µM
EC50 [2]: 21 µM
Ki [3]: 0.71 µM

Molecule: O=c1ccn([C@@H]2O[C@H](COP(=O)(O)OP(=O)(O)O)[C@@H](O)[C@H]2O)c(=O)[nH]1 [UDP, uridine 5’-diphosphate]
Calcium response on addition of nucleotide [1]: did not induce any response
Yeast growth in presence of nucleotide ([2]; data not shown): Basal growth was low

Molecule: Nc1ncnc2c1ncn2[C@@H]1O[C@H](COP(=O)(O)OP(=O)(O)OP(=O)(O)O)[C@@H](N)[C@H]1O [3AM-ATP, 3′-amino-3′-deoxy-ATP]
EC50 [1, 5]: 3 ± 1.5 µM

Molecule: Nc1ncnc2c1ncn2[C@@H]1O[C@H](COP(=O)(O)OP(=O)(O)O)[C@@H](O)[C@H]1O [ADP, adenosine 5′-diphosphate]
EC50 [1]: 0.058 ± 0.017 µM
EC50 [2]: 1.8 ± 0.65 µM

More lines, main results first:

Kb ([1]; KB (Schild analysis), antagonism of ADP-induced calcium mobilization): 0.164 µM
Effect on ADP concentration-response curve in yeast growth assay ([2]; MRS2179 fixed at 10^-6, 10^-5, 10^-4 M, agonist ADP): right shift in the curves
Molecule: CNc1ncnc2c1ncn2[C@H]1C[C@H](OP(=O)(O)O)[C@@H](COP(=O)(O)O)O1 [MRS2179, N^6-methyl-2′-deoxyadenosine-3′,5′-bisphosphate]
Kb [4]: 0.177 µM

Calcium response on addition of nucleotide [1]: did not induce any response
Molecule: O=c1ccn([C@@H]2O[C@H](COP(=O)(O)OP(=O)(O)OP(=O)(O)O)[C@@H](O)[C@H]2O)c(=O)[nH]1 [UTP, uridine 5’-triphosphate]

EC50 [1, 5]: 0.016 ± 0.011 µM
Ki [3, 6]: 1.7 µM
Molecule: 2-hexylthioadenosine 5′-monophosphate [HT-AMP]

EC50 [1, 5]: 0.028 ± 0.013 µM
Ki [3, 6]: 1.1 µM
Molecule: Nc1ccc(CCSc2nc(N)c3ncn([C@@H]4O[C@H](COP(=O)(O)OP(=O)(O)OP(=O)(O)O)[C@@H](O)[C@H]4O)c3n2)cc1 [PAPET-ATP, 2-[4-amino (2-phenylethyl)thio]-ATP]
